Common to all, as to assay type: biochemical
Assay [1] has as its target T1, RSK1 (Homo sapiens, UniProt Q15418).
T1 construct: gene RPS6KA1
The assay is described as follows: ProfilerPro kinase panel, single concentration […].

Assay [2] concerns the target T2, AurA (Homo sapiens, UniProt O14965).
T2 construct: gene AURKA
T2 sequence (O14965 1-403): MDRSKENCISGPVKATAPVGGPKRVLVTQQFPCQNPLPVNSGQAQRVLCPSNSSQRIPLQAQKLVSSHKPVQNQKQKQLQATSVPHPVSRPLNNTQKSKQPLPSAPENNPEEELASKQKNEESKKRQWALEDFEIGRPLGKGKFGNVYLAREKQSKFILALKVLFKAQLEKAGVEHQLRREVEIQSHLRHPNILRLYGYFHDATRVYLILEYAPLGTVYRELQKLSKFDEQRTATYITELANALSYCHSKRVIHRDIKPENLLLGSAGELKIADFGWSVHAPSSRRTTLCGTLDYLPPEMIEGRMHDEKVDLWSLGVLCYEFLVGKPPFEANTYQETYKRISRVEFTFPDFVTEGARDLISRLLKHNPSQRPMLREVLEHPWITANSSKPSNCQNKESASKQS
The assay is described as follows: ProfilerPro kinase panel, single concentration […].

Assay [3] has as its target INSR (Homo sapiens, UniProt P06213). The assay is described as follows: ProfilerPro kinase panel, single concentration […].
Assay [4] deals with T3, CHK2 (Homo sapiens, UniProt O96017).
T3 construct: gene CHEK2
Put plainly: ProfilerPro kinase panel, single concentration […].

Assay [5] has as its target T4, PKD2 (Homo sapiens, UniProt Q9BZL6).
T4 construct: gene PRKD2
T4 sequence (Q9BZL6 1-878): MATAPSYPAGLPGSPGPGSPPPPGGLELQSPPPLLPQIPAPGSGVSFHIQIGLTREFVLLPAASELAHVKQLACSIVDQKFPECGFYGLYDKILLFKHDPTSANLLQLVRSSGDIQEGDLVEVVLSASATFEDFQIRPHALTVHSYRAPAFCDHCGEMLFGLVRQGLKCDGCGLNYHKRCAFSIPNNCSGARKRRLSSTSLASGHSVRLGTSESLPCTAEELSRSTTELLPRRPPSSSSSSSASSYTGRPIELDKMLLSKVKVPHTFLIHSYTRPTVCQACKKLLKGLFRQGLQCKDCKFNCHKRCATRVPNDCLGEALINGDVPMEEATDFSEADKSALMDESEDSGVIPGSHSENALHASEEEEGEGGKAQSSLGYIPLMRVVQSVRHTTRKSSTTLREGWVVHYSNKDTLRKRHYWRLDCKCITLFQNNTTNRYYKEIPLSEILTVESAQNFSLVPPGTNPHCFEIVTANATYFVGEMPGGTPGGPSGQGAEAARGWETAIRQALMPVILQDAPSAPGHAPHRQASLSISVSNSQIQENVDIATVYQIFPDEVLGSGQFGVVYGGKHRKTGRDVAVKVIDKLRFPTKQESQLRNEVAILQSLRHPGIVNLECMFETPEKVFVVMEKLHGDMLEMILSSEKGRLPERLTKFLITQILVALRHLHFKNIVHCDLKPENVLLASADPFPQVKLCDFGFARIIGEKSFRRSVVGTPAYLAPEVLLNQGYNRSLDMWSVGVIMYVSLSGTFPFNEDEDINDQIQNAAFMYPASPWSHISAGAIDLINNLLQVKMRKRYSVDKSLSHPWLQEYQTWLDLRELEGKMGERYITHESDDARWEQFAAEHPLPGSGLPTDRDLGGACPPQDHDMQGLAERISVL
Put plainly: ProfilerPro kinase panel, single concentration […].

For assay [6], the target named is T5, ABL (Homo sapiens, UniProt P00519).
T5 construct: gene ABL1
Put plainly: kinase inhibition IC50 (Invitrogen), following ProfilerPro kinase panel ([…] at […]).

For assay [7], the target named is T5, ABL. The description is as above. This is another data set of the same source.

Where two headings read alike, the source gives them in different places.

T5 sequence (P00519 whole entry): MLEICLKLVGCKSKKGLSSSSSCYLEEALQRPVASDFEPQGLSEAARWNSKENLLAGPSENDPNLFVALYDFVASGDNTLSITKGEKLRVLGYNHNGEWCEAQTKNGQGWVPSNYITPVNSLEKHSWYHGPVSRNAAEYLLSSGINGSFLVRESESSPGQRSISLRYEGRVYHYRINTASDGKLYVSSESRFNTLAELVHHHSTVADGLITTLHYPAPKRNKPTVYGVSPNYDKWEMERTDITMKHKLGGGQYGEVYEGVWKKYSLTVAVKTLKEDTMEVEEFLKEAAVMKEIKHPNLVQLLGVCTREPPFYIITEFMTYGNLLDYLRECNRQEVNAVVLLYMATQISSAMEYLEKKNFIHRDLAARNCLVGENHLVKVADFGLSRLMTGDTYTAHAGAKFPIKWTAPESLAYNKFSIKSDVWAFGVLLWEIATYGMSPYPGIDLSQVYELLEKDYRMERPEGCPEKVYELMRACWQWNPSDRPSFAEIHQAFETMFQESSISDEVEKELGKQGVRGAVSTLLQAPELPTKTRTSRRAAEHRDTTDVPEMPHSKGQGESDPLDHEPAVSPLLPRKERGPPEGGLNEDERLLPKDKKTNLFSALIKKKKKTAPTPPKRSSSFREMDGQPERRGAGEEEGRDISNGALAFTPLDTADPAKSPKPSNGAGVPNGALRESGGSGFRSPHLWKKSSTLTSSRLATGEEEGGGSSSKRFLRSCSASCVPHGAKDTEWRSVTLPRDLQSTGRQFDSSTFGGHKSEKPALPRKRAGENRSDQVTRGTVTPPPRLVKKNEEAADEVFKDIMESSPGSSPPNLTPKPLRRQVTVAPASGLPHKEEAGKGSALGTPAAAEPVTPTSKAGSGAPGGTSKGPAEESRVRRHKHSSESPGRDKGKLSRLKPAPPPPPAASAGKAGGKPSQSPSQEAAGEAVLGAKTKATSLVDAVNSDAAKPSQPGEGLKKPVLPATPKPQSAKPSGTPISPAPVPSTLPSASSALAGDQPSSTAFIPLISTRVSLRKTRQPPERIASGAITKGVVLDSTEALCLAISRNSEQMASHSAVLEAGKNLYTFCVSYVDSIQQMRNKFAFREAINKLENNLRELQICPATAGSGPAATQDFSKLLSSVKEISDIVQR
T1 sequence (Q15418 whole entry): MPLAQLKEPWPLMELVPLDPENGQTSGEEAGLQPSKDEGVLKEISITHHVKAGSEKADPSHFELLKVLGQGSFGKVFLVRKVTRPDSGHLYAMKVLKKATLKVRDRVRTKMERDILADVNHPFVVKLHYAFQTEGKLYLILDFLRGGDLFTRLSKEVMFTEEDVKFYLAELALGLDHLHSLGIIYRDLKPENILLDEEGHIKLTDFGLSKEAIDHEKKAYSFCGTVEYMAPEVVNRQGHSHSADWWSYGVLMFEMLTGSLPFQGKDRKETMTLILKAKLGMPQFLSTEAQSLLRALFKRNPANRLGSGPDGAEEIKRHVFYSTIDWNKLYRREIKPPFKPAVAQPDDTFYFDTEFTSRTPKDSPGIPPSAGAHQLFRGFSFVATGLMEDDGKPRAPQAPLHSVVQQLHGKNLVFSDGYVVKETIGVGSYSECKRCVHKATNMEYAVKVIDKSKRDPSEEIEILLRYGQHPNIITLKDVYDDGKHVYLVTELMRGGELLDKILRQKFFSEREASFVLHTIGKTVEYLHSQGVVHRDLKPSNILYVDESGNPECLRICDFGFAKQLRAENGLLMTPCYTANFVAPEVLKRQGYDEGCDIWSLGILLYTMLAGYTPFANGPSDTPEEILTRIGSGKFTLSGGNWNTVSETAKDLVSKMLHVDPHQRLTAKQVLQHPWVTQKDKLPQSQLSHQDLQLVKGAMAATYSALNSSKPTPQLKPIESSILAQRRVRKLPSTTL
T3 sequence (O96017 whole entry): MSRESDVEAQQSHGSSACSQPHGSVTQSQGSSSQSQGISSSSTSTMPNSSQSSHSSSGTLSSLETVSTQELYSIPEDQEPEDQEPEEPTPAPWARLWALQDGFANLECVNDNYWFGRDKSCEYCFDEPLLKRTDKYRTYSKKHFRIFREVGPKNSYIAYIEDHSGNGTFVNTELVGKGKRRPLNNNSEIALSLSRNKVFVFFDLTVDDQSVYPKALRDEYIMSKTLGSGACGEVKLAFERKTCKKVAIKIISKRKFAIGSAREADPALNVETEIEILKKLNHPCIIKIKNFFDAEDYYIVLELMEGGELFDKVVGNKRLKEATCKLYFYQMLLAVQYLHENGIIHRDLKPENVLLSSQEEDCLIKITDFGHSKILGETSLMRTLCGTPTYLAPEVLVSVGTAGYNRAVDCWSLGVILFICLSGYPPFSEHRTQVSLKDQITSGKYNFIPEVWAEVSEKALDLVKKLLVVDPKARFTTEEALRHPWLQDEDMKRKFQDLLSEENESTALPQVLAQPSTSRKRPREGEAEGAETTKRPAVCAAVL
Chain of INSR (P06213 28-758): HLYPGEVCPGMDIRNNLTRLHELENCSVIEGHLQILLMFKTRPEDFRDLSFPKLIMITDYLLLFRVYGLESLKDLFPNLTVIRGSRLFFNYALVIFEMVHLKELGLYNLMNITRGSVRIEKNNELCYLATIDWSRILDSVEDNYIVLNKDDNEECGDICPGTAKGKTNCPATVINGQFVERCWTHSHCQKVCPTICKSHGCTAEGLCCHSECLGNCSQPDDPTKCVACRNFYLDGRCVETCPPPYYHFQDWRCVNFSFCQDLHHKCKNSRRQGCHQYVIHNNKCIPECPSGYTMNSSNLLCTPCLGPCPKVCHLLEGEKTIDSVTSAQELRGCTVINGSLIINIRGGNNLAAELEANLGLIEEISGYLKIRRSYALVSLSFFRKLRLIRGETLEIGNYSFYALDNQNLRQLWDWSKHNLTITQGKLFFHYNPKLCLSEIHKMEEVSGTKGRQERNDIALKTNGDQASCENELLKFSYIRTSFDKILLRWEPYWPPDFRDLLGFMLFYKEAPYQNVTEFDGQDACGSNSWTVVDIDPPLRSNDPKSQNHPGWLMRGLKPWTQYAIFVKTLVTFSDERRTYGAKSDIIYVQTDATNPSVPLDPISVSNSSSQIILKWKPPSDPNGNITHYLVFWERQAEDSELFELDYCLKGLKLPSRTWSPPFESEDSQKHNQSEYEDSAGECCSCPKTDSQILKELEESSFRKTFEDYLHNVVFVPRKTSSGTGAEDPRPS
Chain of INSR (P06213 763-1382): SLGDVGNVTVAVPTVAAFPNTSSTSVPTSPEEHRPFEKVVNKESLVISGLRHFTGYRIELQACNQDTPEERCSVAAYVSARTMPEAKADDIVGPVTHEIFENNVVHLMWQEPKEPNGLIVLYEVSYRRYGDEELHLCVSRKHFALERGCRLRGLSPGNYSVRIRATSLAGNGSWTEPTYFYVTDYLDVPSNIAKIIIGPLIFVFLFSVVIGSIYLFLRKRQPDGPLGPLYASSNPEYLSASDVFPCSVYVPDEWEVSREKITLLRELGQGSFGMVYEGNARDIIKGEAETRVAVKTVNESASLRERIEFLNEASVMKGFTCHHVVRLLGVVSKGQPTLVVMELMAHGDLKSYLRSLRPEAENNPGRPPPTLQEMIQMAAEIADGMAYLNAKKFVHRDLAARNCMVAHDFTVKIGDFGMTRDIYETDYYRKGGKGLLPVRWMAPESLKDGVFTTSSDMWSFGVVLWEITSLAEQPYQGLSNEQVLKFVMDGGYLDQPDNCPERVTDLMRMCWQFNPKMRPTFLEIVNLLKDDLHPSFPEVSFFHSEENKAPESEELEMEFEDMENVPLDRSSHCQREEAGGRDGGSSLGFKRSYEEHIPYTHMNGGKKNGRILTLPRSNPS

Regarding `Clc1ccc(-c2cnc3[nH]ccc3c2)cc1` [4j], in assay [1], the inhibition – broadly, the change of the read-out against control, counted positive when it falls – at 300 µM was found to be 91%.
Regarding `c1ccc(-c2cnc3[nH]ccc3c2)cc1` [4n], the inhibition at 300 µM in assay [2] worked out at 99%; in assay [3], 93%; in assay [4], 91%; in assay [5], 92%.
Take `c1ccc(-c2ccc3ncccc3c2)cc1` [4o]: the 50% inhibitory concentration (IC50) (in general, the concentration that gives 50% inhibition) in assay [6] came out at 8.11 µM.
In assay [7], `Clc1ccnc2ccc(-c3ccccc3)cc12` [4p] registered an IC50 of 19.2 µM.

(Values after PMC4718143, “A novel protocol for the one-pot borylation/Suzuki reaction provides easy access to hinge-binding groups for kinase inhibitors” (Organic & Biomolecular Chemistry, 2015).)
